Patent publication US11384090B2, “Spiropyrrolidine derived antiviral agents” (priority 2020, dated 2022)

What follows are compounds tested against SARS-CoV-2 3CL-protease (Severe acute respiratory syndrome coronavirus 2 (2019-nCoV) (SARS-CoV-2), UniProt P0DTD1) (assay: biochemical). Details: read-out: FRET IC50.
Compound `CC(C)C[C@@H](C(=O)N1C[C@]2(C[C@H]1C=O)C(=O)Nc1ccccc12)N(C)C(=O)OCc1ccccc1` [Compound 24] has an IC50 of 100 to 1000 nM. In the case of `CN(C(=O)OCc1ccccc1)[C@@H](Cc1ccccc1)C(=O)N1C[C@]2(C[C@H]1C#N)C(=O)Nc1ccccc12` [Compound 41], the IC50 is reported as less than 100 nM. Compound `CC(C)(C)C[C@H](NC(=O)c1cc2c(F)cccc2[nH]1)C(=O)N1C[C@]2(C[C@H]1C#N)C(=O)Nc1ccccc12` [Compound 21] has an IC50 of less than 100 nM.

The compounds below were run on 229E human corona virus (hCoV) (assay: 229E live virus assay). Details: Human coronavirus 229E, MRC5, 144 h, read-out: 229E EC50.
Format: cell-based, hCoV-229E
With `CN(C(=O)c1cc2c(F)cc(F)cc2[nH]1)[C@@H](Cc1ccccc1)C(=O)N1C[C@]2(C[C@H]1C#N)C(=O)Nc1ccccc12` [Compound 81] the EC50 was less than 100 nM.

Same assay, conditions: MRC-5 cells, MOI 0.05, 6 days at 34° C., ATPlite readout, run in duplicate; read-out: 229E EC50
Work on `CCCN(C(=O)OCc1ccccc1)[C@@H](CC(C)C)C(=O)N1C[C@]2(C[C@H]1C#N)C(=O)Nc1ccccc12` [Compound 97] yielded an EC50 greater than 1000 nM. With `CN(C(=O)OCc1ccccc1)[C@@H](CC1CCC1)C(=O)N1C[C@]2(C[C@H]1C#N)C(=O)Nc1ccccc12` [Compound 89] the EC50 was 100 to 1000 nM. For `COc1cccc2[nH]c(C(=O)N[C@H](CC(C)(C)C)C(=O)N3C[C@]4(C[C@H]3C#N)C(=O)Nc3ccccc34)cc12` [Compound 16], the EC50 was 100 to 1000 nM. `COc1cccc2[nH]c(C(=O)N[C@H](CC(C)C)C(=O)N3C[C@]4(C[C@H]3C#N)C(=O)Nc3ccccc34)cc12` [Compound 12] was tested, and the EC50 was 100 to 1000 nM. `CC(C)C[C@H](NC(=O)OCc1ccccc1)C(=O)N1C[C@]2(C[C@H]1C#N)C(=O)Nc1ccccc12` [Compound 1] was tested, and the EC50 was 100 to 1000 nM. Work on `CN(C(=O)c1cc2c(F)cc(F)cc2[nH]1)[C@@H](CC1CCC1)C(=O)N1C[C@]2(C[C@H]1C#N)C(=O)Nc1ccccc12` [Compound 91] yielded an EC50 of less than 100 nM. For `COc1cccc2[nH]c(C(=O)N[C@@H](CC(C)C)C(=O)N3C[C@]4(C[C@H]3C#N)C(=O)Nc3ccccc34)cc12` [Compound 11], the EC50 was less than 100 nM. Compound `C=CCN(C(=O)OCc1ccccc1)[C@@H](CC(C)C)C(=O)N1C[C@]2(C[C@H]1C#N)C(=O)Nc1ccccc12` [Compound 96] has an EC50 of 100 to 1000 nM. Compound `CC(C)CC[C@@H](C(=O)N1C[C@]2(C[C@H]1C#N)C(=O)Nc1ccccc12)N(C)C(=O)c1cc2c(F)cc(F)cc2[nH]1` [Compound 104] has an EC50 of less than 100 nM. For `COc1cccc2[nH]c(C(=O)N[C@@H](CC3CCC3)C(=O)N3C[C@]4(C[C@H]3C#N)C(=O)Nc3ccccc34)cc12` [Compound 17], the EC50 was less than 100 nM. Compound `COc1cccc2[nH]c(C(=O)N[C@@H](CC(C)C)C(=O)N3C[C@]4(C[C@H]3C=O)C(=O)Nc3ccccc34)cc12` [Compound 23] has an EC50 of less than 100 nM. In the case of `CCCN(C(=O)c1cc2c(F)cccc2[nH]1)[C@@H](CC(C)C)C(=O)N1C[C@]2(C[C@H]1C#N)C(=O)Nc1ccccc12` [Compound 98], the EC50 is reported as 100 to 1000 nM. With `CC(C)C[C@@H](C(=O)N1C[C@]2(C[C@H]1C#N)C(=O)Nc1ccccc12)N(C)C(=O)OCc1ccccc1` [Compound 39] the EC50 was greater than 1000 nM. `COc1cccc2[nH]c(C(=O)N[C@@H](CC(C)C)C(=O)N3C[C@]4(C[C@H]3C(=O)C(=O)NC3CC3)C(=O)Nc3ccccc34)cc12` [Compound 31] gave an EC50 of 100 to 1000 nM.
